From article PMC10077475, “DG9-conjugated morpholino rescues phenotype in SMA mice by reaching the CNS via a subcutaneous administration” (JCI Insight, 2023)

Assays:
SMN protein = SMN protein levels by Western blotting in tissues of severe SMA mice; type: in vivo, mouse
Experimental: To evaluate the change of FL-SMN2 expression relative to Δ7 SMN2 transcripts, we used real-time quantitative PCR (RT-qPCR) at PD7; the mice were treated with DG9-PMO at PD0. In both doses, DG9-PMO treatment led to a 4- to 30-fold higher FL-SMN2 expression than NT control in both peripheral and CNS tissues (Figure 2A and Supplemental Figure 3A). It also led to a ~5-fold increase in FL-SMN2 expression when compared with unconjugated PMO, MOE, and R6G-PMO treatments in the majority of the tissues (Figure 2A, Supplemental Figure 3A, and Supplemental Figure 1F). […] SMN levels were higher in CNS tissues in the DG9-PMO–treated than MOE-treated mice, though no statistical significance was seen. […] SMN levels were similar in DG9-PMO and MOE in the tissues collected from mice at PD30.
Total protein was extracted from frozen tissues harvested at PD7 or PD30 by using RIPA buffer (MilliporeSigma) with cOmplete, Mini, EDTA-free protease inhibitor cocktail (MilliporeSigma). The protein concentration was quantified using the Pierce BCA Protein Assay Kit (Thermo Fisher Scientific). […] The bands were detected using the Amersham ECL Select Western Blotting Detection Kit (GE Healthcare) and visualized by the ChemiDoc Touch Imaging system (Bio-Rad). […]

severe SMA mouse model = assay: Body weight of SMA mice at PD7; type: in vivo
Experimental: Injections were carried out using a 30-gauge Hamilton syringe. SMA mice identified following genotyping were randomly assigned to a treatment group. The researcher injecting mice was blinded to the treatment. SMA neonates were subcutaneously injected with 40 or 80 mg/kg of AOs at PD0, while NT and heterozygous control mice were injected with saline (n = 10–49) per group. Tissues including the quadriceps muscle, liver, kidney, spleen, diaphragm, intercostal muscle, heart, brain, and spinal cord were collected and snap-frozen in dry ice– cooled isopentane, then subsequently stored at –80°C.

[1] = Toxicology: serum markers, urinary KIM-1, liver and kidney histology; type: in vivo, mouse
Experimental: To further elucidate the possibility of long-term toxicity, we collected serum from the Hets and AO-treated mice at PD30–PD35. A toxicological evaluation was performed on the levels of alkaline phosphatase (ALP), alanine transaminase (ALT), aspartate aminotransferase (AST), creatine kinase (CK), creatinine, total bilirubin, total protein, albumin, globulin, and gamma-glutamyl transferase (GGT). […] We also performed a qualitative histological analysis of the liver and kidney and found no signs of observable toxicity (Supplemental Figure 9D). We also analyzed levels of urinary kidney injury marker-1 (KIM-1) following DG9-PMO treatment at both 40 and 80 mg/kg.
Blood was collected from the mice around PD30–PD40 (n = 4–10 per group) during the dissection procedure. The blood was left at RT for 30 minutes and centrifuged at 2,000 rcf. The resulting supernatant (serum) was transferred to a new 1.5 mL tube and stored at –20 °C. The serum samples were analyzed by IDEXX BioAnalytics. The evaluation was performed on a standard set of toxicity markers: glucose, total bilirubin, blood urea nitrogen, CK, creatinine, ALP, ALT, AST, GGT, globulin, albumin, and total protein. Urinary KIM-1 analysis was performed from urine collected from mice at PD30. The collected urine was centrifuged at 2,000 rcf at 4°C. […]

SMN2 (ISS-N1 intron 7) = assay: FL-SMN2 expression by RT-qPCR in mild SMA model (F0 mice); type: in vivo, mouse; details: s.c. at PD5; PD7 (40 mg/kg) and PD13 (80 mg/kg)
Text: To target the motor neurons in the CNS via systemic administration, AOs need to cross the BBB in patients with SMA. For this study, we used a milder SMA model (F0) (Smn^–/– SMN2^+/+) with 4 SMN2 copies obtained from Jackson Laboratory (JAX 005058) that are viable, are fertile, and have shortened, thick tails since severe SMA model mice have a median survival of only 8 days, making it difficult to evaluate the treatment efficacy when the BBB is mature. […] To determine the ability of DG9-PMO to reach the CNS, we subcutaneously injected 40 mg/kg or 80 mg/kg fluorescently tagged DG9-PMO into F0 mice at PD0 or PD5. […] We also performed an ELISA to examine the biodistribution of unconjugated PMO and DG9-PMO at PD7.
Frozen tissues harvested at PD7 were sectioned using a cryostat (Leica CM 1950) into 20 μm sections. […] The relative gene expression for FL-SMN2 over the deletion of SMN2 transcripts without exon 7 was normalized to the NT control samples and analyzed using the ΔΔCt method. The expression of denervation markers relative to 18S was normalized to the healthy heterozygous control samples collected at PD30 and analyzed using the ΔΔCt method.

## CC(=O)N[C@@H](Cc1ccc(O)cc1)C(=O)N[C@@H](C)C(=O)N[C@H](CCCNC(=N)N)C(=O)N[C@H](C(=O)N[C@@H](CCCNC(=N)N)C(=O)N[C@@H](CCCNC(=N)N)C(=O)N[C@H](CCCNC(=N)N)C(=O)NCC(=O)N1CCC[C@H]1C(=O)N[C@@H](CCCNC(=N)N)C(=O)NCC(=O)N[C@@H](Cc1ccc(O)cc1)C(=O)N[C@@H](C)C(=O)N[C@H](CCCNC(=N)N)C(=O)N[C@H](C(=O)N[C@@H](CCCNC(=N)N)C(=O)N[C@@H](CCCNC(=N)N)C(=O)N[C@H](CCCNC(=N)N)C(=O)NCC(=O)N1CCC[C@H]1C(=O)N[C@@H](CCCNC(=N)N)C(=O)N[C@H](CCCNC(=N)N)C(=O)N1C[C@@H](COP(=O)(N(C)C)N2C[C@@H](COP(=O)(N(C)C)N3C[C@@H](COP(=O)(N(C)C)N4C[C@@H](COP(=O)(N(C)C)N5C[C@@H](COP(=O)(N(C)C)N6C[C@@H](COP(=O)(N(C)C)N7C[C@@H](COP(=O)(N(C)C)N8C[C@@H](COP(=O)(N(C)C)N9C[C@@H](COP(=O)(N(C)C)N%10C[C@@H](COP(=O)(N(C)C)N%11C[C@@H](COP(=O)(N(C)C)N%12C[C@@H](COP(=O)(N(C)C)N%13C[C@@H](COP(=O)(N(C)C)N%14C[C@@H](COP(=O)(N(C)C)N%15C[C@@H](COP(=O)(N(C)C)N%16C[C@@H](COP(=O)(N(C)C)N%17C[C@@H](COP(=O)(N(C)C)N%18C[C@@H](COP(=O)(N(C)C)N%19CCC(C(N)=O)CC%19)O[C@@H](n%19cc(C)c(=O)[nH]c%19=O)C%18)O[C@@H](n%18ccc(N)nc%18=O)C%17)O[C@@H](n%17cnc%18c(N)ncnc%18%17)C%16)O[C@@H](n%16ccc(N)nc%16=O)C%15)O[C@@H](n%15cc(C)c(=O)[nH]c%15=O)C%14)O[C@@H](n%14cc(C)c(=O)[nH]c%14=O)C%13)O[C@@H](n%13cc(C)c(=O)[nH]c%13=O)C%12)O[C@@H](n%12ccc(N)nc%12=O)C%11)O[C@@H](n%11cnc%12c(N)ncnc%12%11)C%10)O[C@@H](n%10cc(C)c(=O)[nH]c%10=O)C9)O[C@@H](n9cnc%10c(N)ncnc%109)C8)O[C@@H](n8cnc9c(N)ncnc98)C7)O[C@@H](n7cc(C)c(=O)[nH]c7=O)C6)O[C@@H](n6cnc7c(=O)[nH]c(N)nc76)C5)O[C@@H](n5ccc(N)nc5=O)C4)O[C@@H](n4cc(C)c(=O)[nH]c4=O)C3)O[C@@H](n3cnc4c(=O)[nH]c(N)nc43)C2)O[C@@H](n2cnc3c(=O)[nH]c(N)nc32)C1)C(C)C)C(C)C (stereo partly shown) [DG9-PMO]
SMN protein; 40 mg/kg s.c. at PD0, tissues at PD30
  SMN expression at PD30 (Western blotting): sustained levels of SMN expression at PD30
SMN protein; s.c. at PD0, tissues at PD7, relative to β-tubulin
  SMN protein levels (Western blotting): increased SMN protein levels in both the peripheral and CNS tissues
Severe SMA mouse model; 40 mg/kg s.c. at PD0
  body weight at PD7 versus R6G-PMO: weighed significantly more than R6G-PMO–treated neonates
Severe SMA mouse model; both doses (40 and 80 mg/kg) s.c. at PD0
  body weight at PD7: significantly heavier than the NT and unconjugated PMO–treated littermates
[1]; 40 and 80 mg/kg, urine at PD30, sandwich ELISA
  urinary kidney injury marker-1 (KIM-1) compared to the Hets: no apparent increase
[1]; as high as 80 mg/kg dose
  toxicity on the liver and kidney: no apparent toxicity
SMN2 (ISS-N1 intron 7)
  FL-SMN2 expression, mild SMA model (F0): significant increase in the FL-SMN2 expression in both the CNS and peripheral tissues
